For data set [1], the system named is target gene SOD1. Description: Test Example 6: inhibitory activity of NM073, NM074 conjugated siRNA sequences on SOD1 by intrathecal administration to rats. The format is in vivo, SD rats. The note with it: intrathecal, 900 μg per rat, D28. How it is done:
6-8 Week-old SD rats were randomly grouped by body weight. Rats in each group were administered with siRNA by intrathecal administration, with an administration dose of 900 μg per rat. Injection was administered from rat spinal cord L5-L6, with an administration volume of 40 μL. Needle was retained for 2 min after completion of injection, and then slowly withdrawn. PBS control group was administered with the same volume of siRNA conjugate-free PBS solution. The day of administration was recorded as 0 day (D0), and the rats were sacrificed at observation point after administration. Different segments of spinal cord and different regions of brain were respectively taken and stored in the RNAlater.
(§1) RNA extraction: the above tissue samples were taken out from the RNAlater, and smashed for 60 s in Tissuelyser type II full-automatic tissue homogenizer, and total RNAs of various tissue samples were extracted using the full-automatic nucleic acid extraction instrument and the nucleic acid extraction kit from Zhejiang Hanwei Science and Technology Co. Ltd. according to methods described in instructions.
(§2) Reverse transcription reaction: 1 μg of the extracted total RNAs of the tissue samples were taken, and configured into 20 μL of reverse transcription system according to a method described in kit instructions by using a reverse transcription kit (Reverse Transcription System, A3500) from Promega Corporation and selecting Oligo (dT)15 reverse transcription primers, and the reverse transcription reaction was completed. After the reaction was ended, 80 μL of RNase-Free water was added into the reverse transcription system to provide cDNA solution for Real-time PCR detection.
(§3) Real-time PCR detection: 20 μL of Real-time PCR reaction system per PCR detection well was configured according to a method described in kit instructions using SYBR™ Select Master Mix (Catalog number: 4472908) reagent from ABI company. Each detection system contained 5 μL of cDNA template obtained from the above reverse transcription reaction, 10 μL of SYBR™ Select Master Mix, 0.5 μL of 10 μM upstream primers, 0.5 μL of 10 μM downstream primers, and 4 μL of RNase-Free H2O. The configured reaction system was subjected to Real-time PCR amplification on ABI StepOnePlus PCR instrument by a three-step method, wherein an amplification procedure was pre-denaturation at 95° C. for 10 min, then denaturation at 95° C. for 30 s, annealing at 60° C. for 30 s, and extension at 72° C. for 30 s; and processes of denaturation, annealing, and extension were repeated for 40 cycles. Gene expression differences were calculated by the ΔΔCt method after completion of the procedure.
(§4) In the real-time fluorescence quantitative PCR method, relative quantitative calculation of remaining expression level and inhibition rate of gene mRNA of interest in various test groups was performed by the ΔΔCt method, and the calculation method is as follows:
The present test example evaluated, by an evaluation method for inhibitory activity on a target gene by intrathecal administration to rats, the inhibitory activity of siRNA sequence RZ899090 with the NM073 conjugation at Position 4, siRNA sequence RZ899091 with the NM074 conjugation at Position 4 and siRNA control sequence RZ899093 with the Uhd conjugation on the target gene SOD1 of interest in spinal cord and brain of rats. The above conjugation vectors were different in that NM073 was C18 aliphatic chain and NM074 was C20 aliphatic chain.
6-8 Week-old SD rats were randomly grouped by body weight, 5 per group, 4 groups in total. Rats in each group were dosed with the above siRNA conjugates by intrathecal administration, with an administration dose of 900 μg per rat, and an administration volume of 40 μL. PBS control group was administered with the same volume of siRNA conjugate-free PBS solution. The day of administration was recorded as D0, and the rats were sacrificed on D28 after administration. […]

Data set [2] relates to target gene SOD1. Nature of the data set: Test Example 8: inhibitory activity on target gene SOD1 in adipose tissues in different parts of mice. The data set is classed as in vivo, C57BL/6j mice. The note with it: tail vein injection 5 mg/kg, D14. How it is done: as §1, §2, §3, §4
The present test example evaluated, by an evaluation method for inhibitory activity on a target gene in mice, the inhibitory activity of siRNA sequence RZ899090 with the sense strand with the NM073 conjugation at Position 4, siRNA sequence RZ899091 with the sense strand with the NM074 conjugation at Position 4, siRNA sequence RZ899078 with the sense strand with the NM202 conjugation at Position 6 and siRNA reference sequence RZ899093 with the sense strand with the Uhd conjugation at Position 4, siRNA reference sequence RZ899076 with the sense strand with the NM200 conjugation at Position 4 on the target gene SOD1 in adipose tissues of interest in mice.
(§5) 6-8 Week-old C57BL/6j mice were randomly grouped by body weight, 5 per group, 6 groups in total. Mice in each group were dosed with the above siRNA conjugates by tail vein injection, with an administration dose of 5 mg/kg per mouse, and an administration volume of 150 μL. PBS control group was administered with the same volume of siRNA conjugate-free PBS solution. The day of administration was recorded as D0, and 5 mice in each group were sacrificed on D14 after administration. Paragonadal fat, abdominal subcutaneous fat, and brown fat on back were respectively taken. RNA extraction, reverse transcription, and real-time fluorescence quantitative detection were performed on various tissues according to the above method, and gene expression differences were calculated by the above ΔΔCt method.

The subject of data set [3] is target gene SOD1. Nature of the data set: Test Example 9: inhibitory activity of lipid conjugated siRNA sequences on SOD1 in mouse muscle tissues. The format is in vivo, C57BL/6j mice. Particulars: tail vein injection 5 mg/kg, D14. How it is done: as §1, §2, §3, §4
The present test example evaluated, by an evaluation method for inhibitory activity on a target gene in mice, the inhibitory activity of siRNA sequence RZ899090 with the sense strand with the NM073 conjugation at Position 4, siRNA sequence RZ899091 with the sense strand with the NM074 conjugation at Position 4, siRNA sequence RZ899078 with the sense strand with the NM202 conjugation at Position 6 and siRNA reference sequence RZ899093 with the sense strand with the Uhd conjugation at Position 4, siRNA reference sequence RZ899076 with the sense strand with the NM200 conjugation at Position 4 on the target gene SOD1 of interest in muscle tissues in different parts of mice.
as §5, with “Tissues such as left hind leg quadriceps muscle, diaphragm,” for “Paragonadal fat, abdominal subcutaneous fat,”, “heart tissues” for “brown fat on back”, “taken and stored in the RNAlater.” for “taken.”

Strand notation (5' to 3'): a small letter for the sugar, then the base; units joined by * are phosphorothioate-linked, units joined directly phosphodiester-linked; [ ] holds rarer units or linkages, { } end groups; capitals alone tell only the bases. [Uhd] = commercial lipid-conjugated uridine analogue Uhd (C16), from Hongene, reference; {VP} = (thio)vinylphosphonate on the antisense 5' nucleotide, as listed; e = 2'-O-(2-methoxyethyl) (MOE); m = 2'-O-methyl; f = 2'-fluoro

Regarding “RZ899093: siRNA reference sequence with the sense strand with the Uhd (C16) conjugation at Position 4; SEQ ID NO: 13 / 23 (sense mU*mU*mU[Uhd]mAmAfUfCfCfUmCmAmCmUmCmUmAmAmA; antisense {VP}-mU*fU*mUmAmGfAmGmUmGmAmGfGmAfUeUfAmAmAmA*mU*mG) [reference compound]”, the “Cerebellum % Mean value of inhibition rate” value with target gene SOD1 [1] (cerebellum) was 55.89%. The “Cortex % Mean value of inhibition rate” value in the data set on target gene SOD1 [1] (cerebral cortex) was determined as 36.29%. In addition, the “Hippocampus % Mean value of inhibition rate” value in the data set with target gene SOD1 [1] (hippocampus) was determined as 52.87%. The “Cervical segment % Mean value of inhibition rate” value in the data set with target gene SOD1 [1] (spinal cord cervical segment) was found to be 69.68%. The “Lumbar segment % Mean value of inhibition rate” value in the data set with target gene SOD1 [1] (spinal cord lumbar segment) is 95.31%. Also, the “Thoracic segment % Mean value of inhibition rate” value in the data set with target gene SOD1 [1] (spinal cord thoracic segment) is given as 94.90%. Besides, the “Subcutaneous fat % Mean value of inhibition rate” value in the data set with target gene SOD1 [2] (abdominal subcutaneous fat) worked out at 85.92%. Moreover, the “Brown fat on back % Mean value of inhibition rate” value in the data set on target gene SOD1 [2] (brown fat on back) turned out to be 77.13%. In the data set with target gene SOD1 [2] (paragonadal fat), the “Paragonadal fat % Mean value of inhibition rate” value came to 76.20%. In addition, the “Diaphragm % Mean value of inhibition rate” value with target gene SOD1 [3] (diaphragm) came to 64.76%. Besides, the “Heart % Mean value of inhibition rate” value in the data set on target gene SOD1 [3] (heart) amounted to 51.52%. Besides, the “Left quadriceps muscle % Mean value of inhibition rate” value with target gene SOD1 [3] (left hind leg quadriceps muscle) turned out to be 56.55%.

Values taken from patent US20260132165A1, “MODIFIED NUCLEOSIDE ANALOGUE AND USE THEREOF, AND NUCLEOSIDE ANALOGUE-CONTAINING DOUBLE-STRANDED OLIGONUCLEOTIDE AND USE THEREOF” (RIGERNA THERAPEUTICS (BEIJING) CO., LTD., priority 2023, published 2026).
